Laboratory results reported in ChEMBL document CHEMBL1821677, “Identification of novel allosteric modulators for the G-protein coupled US28 receptor of human cytomegalovirus” (Bioorg Med Chem Lett, 2011).
Active and inactive are the calls of the source. The calls are words filed in the database; no cut-off is given here.

Assays:
[1] = Inverse agonist activity at HCMV TB40/E US28 expressed in human HEK cells assessed as Elk-1 activation preincubated for 1 hrs measured after 20 to 24 hrs by luciferase reporter gene assay; type: functional, cell-based; settings: Human betaherpesvirus 5, TB40/E, HEK293
[2] = test system: G-protein coupled receptor homolog US28 (Human cytomegalovirus); test: Efficacy at HCMV TB40/E US28 expressed in human HEK cells assessed as Elk-1 activation preincubated for 1 hrs measured after 20 to 24 hrs by PathDetect trans Elk-1 reporter gene assay relative to control; settings: Human betaherpesvirus 5, HEK293
[3] = Cytotoxicity against mock transfected human HEK cells at 10 uM after 20 to 24 hrs by Cell titer cell proliferation assay; type: cell-based; settings: hek293, 10 µM
[4] = target: D(2) dopamine receptor (Homo sapiens) (UniProt P14416); test: Binding affinity to dopamine D2L receptor
D(2) dopamine receptor (Homo sapiens), sequence (P14416 whole entry): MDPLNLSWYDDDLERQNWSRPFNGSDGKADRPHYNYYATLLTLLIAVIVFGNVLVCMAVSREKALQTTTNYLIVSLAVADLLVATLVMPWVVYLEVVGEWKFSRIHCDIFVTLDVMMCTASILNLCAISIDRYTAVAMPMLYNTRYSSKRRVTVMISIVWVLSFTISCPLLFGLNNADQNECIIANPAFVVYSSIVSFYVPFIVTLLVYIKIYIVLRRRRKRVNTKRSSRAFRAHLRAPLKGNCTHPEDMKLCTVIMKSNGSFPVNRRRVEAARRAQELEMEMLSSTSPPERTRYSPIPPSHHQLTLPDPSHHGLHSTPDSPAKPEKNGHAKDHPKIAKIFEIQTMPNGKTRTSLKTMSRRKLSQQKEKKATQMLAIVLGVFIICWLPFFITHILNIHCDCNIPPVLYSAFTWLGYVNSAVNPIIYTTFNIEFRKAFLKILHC

[5] = target: D(2) dopamine receptor (Homo sapiens) (UniProt P14416); test: Binding affinity to human dopamine D2L receptor expressed in HEK cells assessed as Elk-1 activation preincubated for 1 hrs measured after 20 to 24 hrs by PathDetect trans Elk-1 reporter gene assay; type: cell-based; settings: HEK293

Compound `CCCC[C@@H]1Cc2c(Cl)cccc2[C@@H](c2ccccc2)N1` (relative stereo) has an EC50 ([1]; read-out: EC50) of 1400 nM, an EC50 ([1]; read-out: pEC50 (converted)) of 1410 nM and an Efficacy [2] of 16%.
For `CC1(COC(=O)c2ccccc2)Cc2ccccc2CN1C(=O)c1ccccc1` (configuration not stated), the EC50 ([1]; read-out: EC50) was 8500 nM, the EC50 ([1]; read-out: pEC50 (converted)) was 8510 nM and the Activity [3] was “Toxic”. The Efficacy [2] was -62%.
With `N#CC(CCCN1CCC(O)(c2ccc(Cl)cc2)CC1)(c1ccccc1)c1ccccc1` [BERLEX COMPOUND] the EC50 ([1]; read-out: EC50) was 4500 nM, the EC50 ([1]; read-out: pEC50 (converted)) was 4570 nM and the Activity [4] was 2 µM. For the same compound, the Efficacy [2] was -22%.
With `CC1(CCO)Cc2ccccc2C(=O)N1c1ccccc1` (configuration not stated) the EC50 ([1]; read-out: EC50) was 1000 nM, the EC50 ([1]; read-out: pEC50 (converted)) was 1020 nM and the Activity [3] was “Non-toxic”. It also gave an Efficacy [2] of -14%.
Compound `CCCC[C@H]1Cc2ccc(F)cc2[C@@H](c2ccccc2)N1` (relative stereo) has an EC50 ([1]; read-out: EC50) of 1800 nM, an EC50 ([1]; read-out: pEC50 (converted)) of 1780 nM and an Efficacy [2] of 15%.
With `CC1(COC(=O)Cc2ccccc2)Cc2ccccc2CN1C(=O)Cc1ccccc1` (configuration not stated) the EC50 ([1]; read-out: EC50) was 3400 nM, the EC50 ([1]; read-out: pEC50 (converted)) was 3470 nM and the Activity [3] was “Non-toxic”. For the same compound, the Efficacy [2] was -37%.
For `CC1(COC(=O)c2ccco2)Cc2ccccc2CN1C(=O)c1ccco1` (configuration not stated), the EC50 ([1]; read-out: EC50) was 7400 nM, the EC50 ([1]; read-out: pEC50 (converted)) was 7410 nM and the Activity [3] was “Non-toxic”. The Efficacy [2] was -18%.
For `CCCC[C@@H]1Cc2ccc(F)cc2[C@@H](c2ccccc2)N1` (relative stereo), the EC50 ([1]; read-out: EC50) was 2000 nM, the EC50 ([1]; read-out: pEC50 (converted)) was 2000 nM and the Efficacy [2] was 15%.
For `CCCC[C@H]1Cc2ccccc2[C@@H](c2ccccc2)N1` (relative stereo), the EC50 ([1]; read-out: EC50) was 280 nM, the EC50 ([1]; read-out: pEC50 (converted)) was 275 nM and the Activity [5] was “Active”. The Efficacy [2] was 22%.
Work on `CCCC[C@H]1Cc2ccc(Cl)cc2[C@@H](c2ccccc2)N1` (relative stereo) yielded an EC50 ([1]; read-out: EC50) of 7800 nM, an EC50 ([1]; read-out: pEC50 (converted)) of 7760 nM and an Efficacy [2] of 12%.
With `CC1(CCOC(=O)Cc2ccccc2)Cc2ccccc2CN1C(=O)Cc1ccccc1` (configuration not stated) the EC50 ([1]; read-out: EC50) was 7500 nM, the EC50 ([1]; read-out: pEC50 (converted)) was 7590 nM and the Activity [3] was “Toxic”. For the same compound, the Efficacy [2] was -51%.
`CCCCCC[C@H]1Cc2c(Cl)cccc2[C@@H](c2ccccc2)N1` (relative stereo) gave an EC50 ([1]; read-out: EC50) of 2300 nM, an EC50 ([1]; read-out: pEC50 (converted)) of 2290 nM and an Efficacy [2] of 21%.
In the case of `CCCCCCCCCC(=O)N(CCN(C)C)C1CCCCC12Cc1ccccc1C(=O)N2` (configuration not stated), the EC50 ([1]; read-out: EC50) is reported as 4800 nM, the EC50 ([1]; read-out: pEC50 (converted)) is reported as 4790 nM and the Efficacy [2] is reported as -22%.
With `CCCCCCCCCC(=O)N(CCN(C)C)CC1(C)Cc2ccccc2C(=O)N1` (configuration not stated) the EC50 ([1]; read-out: EC50) was 1500 nM, the EC50 ([1]; read-out: pEC50 (converted)) was 1510 nM and the Activity [3] was “Non-toxic”. The Efficacy [2] was -20%.
Compound `CCC[C@H]1Cc2c(Cl)cccc2[C@@H](c2ccccc2)N1` (relative stereo) has an EC50 ([1]; read-out: EC50) of 1500 nM, an EC50 ([1]; read-out: pEC50 (converted)) of 1550 nM and an Efficacy [2] of 27%.
In the case of `CC1(CCOC(=O)c2ccccc2)Cc2ccccc2CN1C(=O)c1ccccc1` (configuration not stated), the EC50 ([1]; read-out: EC50) is reported as 13500 nM, the EC50 ([1]; read-out: pEC50 (converted)) is reported as 13500 nM and the Activity [3] is reported as “Toxic”. For the same compound, the Efficacy [2] was -70%.
For `CSc1ccc2c(c1)C(N1CCN(C)CC1)Cc1ccccc1S2` (configuration not stated) [METITEPINE], the EC50 ([1]; read-out: EC50) was 350 nM, the EC50 ([1]; read-out: pEC50 (converted)) was 355 nM and the Efficacy [2] was 10%.
For `CCCC[C@H]1Cc2c(Cl)cccc2[C@@H](c2ccccc2)N1` (relative stereo), the EC50 ([1]; read-out: EC50) was 130 nM, the EC50 ([1]; read-out: pEC50 (converted)) was 129 nM and the Activity [5] was “Active”. It also gave an Efficacy [2] of 21%.
In the case of `CC1(CO)Cc2ccccc2C(=O)N1c1ccccc1` (configuration not stated), the EC50 ([1]; read-out: EC50) is reported as 4400 nM, the EC50 ([1]; read-out: pEC50 (converted)) is reported as 4370 nM and the Efficacy [2] is reported as 41%.
